Laboratory results taken from patent US11478474B2, “2-(3′-(hydroxymethyl)-1-methyl-5-((5-(2-methyl-4-(oxetan-3-yl)piperazin-1-yl)pyridin-2-yl)amino)-6-oxo-1,6-dihydro-[3,4′-bipyridin]-2′-yl)-7,7-dimethyl-7,8-dihydro-2H-cyclopenta[4,5]pyrrolo[1,2-a]pyrazin-1(6H)-one as a BTK inhibitor” (HUTCHISON MEDIPHARMA LIMITED, priority 2020, dated 2022).

Assays:
BTK recombinant protein = BTK recombinant protein (Homo sapiens (Human), UniProt Q06187); experiment: Determination of biochemical BTK (Z'-LYTE kinase assay)
BTK recombinant protein, sequence (Q06187 whole entry): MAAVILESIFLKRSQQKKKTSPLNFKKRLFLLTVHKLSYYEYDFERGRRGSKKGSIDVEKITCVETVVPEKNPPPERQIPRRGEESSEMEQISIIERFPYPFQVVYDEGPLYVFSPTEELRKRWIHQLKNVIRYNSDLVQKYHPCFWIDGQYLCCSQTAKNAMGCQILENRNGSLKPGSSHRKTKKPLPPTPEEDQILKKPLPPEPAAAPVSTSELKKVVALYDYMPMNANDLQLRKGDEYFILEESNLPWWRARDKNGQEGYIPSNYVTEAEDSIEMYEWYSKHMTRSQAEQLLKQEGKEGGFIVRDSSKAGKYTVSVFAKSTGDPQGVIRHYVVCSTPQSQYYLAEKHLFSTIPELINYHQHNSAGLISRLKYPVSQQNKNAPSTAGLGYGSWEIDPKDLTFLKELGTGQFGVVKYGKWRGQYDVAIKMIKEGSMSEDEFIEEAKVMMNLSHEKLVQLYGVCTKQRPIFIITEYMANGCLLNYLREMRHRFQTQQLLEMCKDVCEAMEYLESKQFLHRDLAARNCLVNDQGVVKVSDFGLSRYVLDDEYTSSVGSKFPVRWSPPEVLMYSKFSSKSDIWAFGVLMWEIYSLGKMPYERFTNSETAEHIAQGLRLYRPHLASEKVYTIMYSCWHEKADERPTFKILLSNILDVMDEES
Excerpt: Example 2 Determination of Biochemical BTK
(§1) 1. Reagents and Materials
BTK recombinant protein: Invitrogen, Cat #PV3363;
Z′-LYTE® kinase test kit-tyrosine 1 peptide: Invitrogen, Cat #PV3190;
Z′-LYTE® biochemical assay employs a fluorescence resonance energy transfer (FRET)—based, coupled-enzyme format and is based on the differential sensitivity of phosphorylated and non-phosphorylated peptides to proteolytic cleavage. Both ends of the short peptide substrate are labeled with two fluorescent groups to form a FRET paired combination. In the primary reaction (the Kinase Reaction), the kinase transfers the γ-phosphate of ATP to a single […] residue on the short peptide substrate. In the secondary reaction (the development reaction), the non-phosphorylated short peptides were recognized and cleaved by a site-specific protease (the development reagent). Phosphorylated short peptides can resist such cleavage. Cleavage of short peptides can disrupt the donor (such as coumarin) and receptor fluorophores (fluorescein) on the short peptides, while the phosphorylated short peptides can maintain FRET. The calculation method of the ratio is as follows, and the ratio of the respective emission signals generated by the donor fluorophores emitted (after excitation at 400 nm) to the receptors is calculated. Emission signal ratio=emitted light by coumarin (445 nm)/emitted light by fluorescein (520 nm). If the FRET short peptide is phosphorylated (such as no kinase inhibitor), the emitted light ratio will remain in a lower level. If the FRET short peptide is non-phosphorylated (such as kinase inhibitor), the emitted light ratio will be in a higher level. In this way, the inhibitory effects of different compound inhibitors on BTK kinase activity would be distinguished.
The experiment were carried out according to the instructions of the Z′-LYTE® kinase test kit-tyrosine 1 peptide. Reagent preparation: 1.33× kinase buffer: 5× kinase buffer was diluted with water to 1.33× kinase buffer; an enzyme solution: the kinase was dissolved in 1.33× kinase buffer with the final working concentration being 3.32 nM; a short peptide solution: a short peptide stock solution (1 mM dissolved in DMSO) was dissolved in 1.33× kinase buffer with the final working concentration being 2 μM; Z′-LYTE Tyr01 phosphorylated short peptide solution, 0.6 μl of stock solution (1 mM dissolved in DMSO) was dissolved in 149.4 μl of 1.33× kinase buffer; an ATP solution: an ATP stock solution (10 mM aqueous solution) was dissolved in 1.33× kinase buffer with the final working concentration being 32 μM; a color-developing solution: color-developing solution B was dissolved in color-developing buffer with the final working concentration being 1× color-developing solution; 4× compound preparation: the compound was diluted in 3-fold gradient concentration to finally obtain 4% DMSO aqueous solution containing different concentrations of the compound, with the final working concentration being 3000, 1000, 333.33, 111.11, 37.04, 12.35, 4.12, 1.37 nM, 8 concentration points in total.
Specific steps of the experiment: In the experiment, there were three control groups, each with 8 replicate wells, which were C1 100% inhibition group (no ATP), C2 0% inhibition group (with ATP), and C3 100% phosphorylation group, respectively. 2.5 μl of serially diluted compound was added to each well of a 384-well plate, with double replicate wells, and 4% DMSO solution was added to wells C1, C2, and C3. After that, except for wells C3, 2.5 μl of BTK enzyme solution was added to each remaining well, which was left to stand at 4° C. for 30 minutes. After that, except for wells C3, 2.5 μl of short peptide solution was added to each well, and 5 μl of phosphorylated short peptide solution was added to each of wells C3. 2.5 μl of 1.33× kinase buffer was added to each of wells C1 and C3, and 2.5 μl of ATP solution was added to each of the remaining wells. […]

[1] = target: phosphorylated BTK in Ramos cells (Homo sapiens (Human), UniProt Q06187); experiment: Determination of phosphorylated BTK in Ramos cells (BTK phospho-Y223 HTRF); assay type: cell-based; conditions: anti-human IgM + hydrogen peroxide stimulation
phosphorylated BTK in Ramos cells, sequence (Q06187 whole entry): as above
Method: Determination of Phosphorylated BTK in Ramos Cells
as §1
Ramos cells: Ramos cells were purchased from American Standard Biological Collection Center ATCC Cell Bank, PRMI 1640 medium containing L-glutamine, 1.5 g/L of sodium bicarbonate, 2.383 g/L of HEPES solution, 0.11 g/L of sodium pyruvate and 4.5 g/L of glucose was used, added 10% fetal bovine serum FBS, and placed in a 5% CO2, 37° C. cell incubator for normal culture;
Phosphorylated BTK HTRF detection kit (BTK phospho-Y223 HTRF kit): Cisbio, Cat #63ADK017PEH;
Ramos cells were starved in PRMI 1640 medium with 1% FBS for 2 hours. The starved Ramos cells were diluted with Hank's balanced salt solution to 5.0×10^6 cells/ml, seeded in a 96-well plate with 20 μL/well (1.0×10^5 cells/well), and cultured in a 5% CO2, 37° C. cell incubator. After culturing for 1 hour, the test compound was diluted with Hank's balanced salt solution in 4-fold gradient to the corresponding concentrations, and then 5 μL/well of the diluted test compound with different concentrations (the final concentrations of the test compound were 3.0, 0.75, 0.188, 0.047, 0.012, 0.0029, 0.0007 and 0.00018 μM, and the final concentration of DMSO was 0.3%, double replicate wells) or 5 μL/well of control solution (1.5% DMSO, 8 replicate wells) were added to 20 μL/well of cell culture system, which incubated together for another hour, then 5 μL/well of a mixed solution of human immunoglobulin M (final concentration was 10 μg/mL) and hydrogen peroxide (final concentration was 3.3 mM) diluted with Hank's balanced salt solution was added to the treating wells for the test compound and the control treating wells for anti-human immunoglobulin M, and 5 μL/well of Hank's balanced salt solution was added to negative control treating wells. The plate was incubated in a 5% CO2, 37° C. cell incubator for 10 minutes.
10 μL/well of cell lysis buffer was added to each well of a 96-well plate, which was mixed well and lysed at room temperature for 30 minutes. 16 μL/well of lysis buffer was pipetted to a new 384 well plate, and then added 4 μL/well of phosphorylated BTK antibody, centrifuged (1000 rpm) for 1 minute, then shaken for 1 minute, further centrifuged (1000 rpm) for 1 minute, and finally placed in a constant temperature incubator overnight. Detection was performed on the next day.
The 384 well plate incubated overnight in the constant temperature incubator was taken out to detect the luminescence signal using the Envision microwell plate reader at the […]. The reading value at 665 nm/615 nm of each well multiplied by 104 was used as the signal value of each well.
The average signal value of the wells supplemented with the mixed solution of human immunoglobulin M (final concentration was 10 μg/mL) and hydrogen peroxide (final concentration was 3.3 mM) without the test compound was regarded as the high value, and the average signal value of the wells without immunoglobulin M stimulation and without the test compound was regarded as the low value. According to the signal value in each well, the inhibition ratio (%) of each concentration of compounds was calculated, and the 205 model in XL-Fit 5.3 software (ID Business Solutions Limited) was used to obtain an IC50 value.
The inhibition ratio is calculated as follows: inhibition ratio (%)=100%−{(treating well for the test compound−negative control treating well)/(control treating well for anti-human immunoglobulin M−negative control treating well)}×100%, wherein,
Treating well for the test compound: represents the signal value of Ramos cells treated with anti-human immunoglobulin M, hydrogen peroxide and the test compound.
Control treating well for anti-human immunoglobulin M: represents the signal value of Ramos cells treated with anti-human immunoglobulin M, hydrogen peroxide but without the test compound. […]

SMILES | IC50 (BTK recombinant protein) | IC50 [1]
COCCN1CCn2nc(Nc3cc(-c4ccnc(-n5ccn6c7c(c(F)c6c5=O)CCCC7)c4CO)cn(C)c3=O)cc2C1 [Compound 167] | 0.016 µM | 0.012 µM
COCCN1CCn2nc(Nc3cc(-c4ccnc(-n5ccn6c7c(cc6c5=O)CCC7)c4CO)cn(C)c3=O)cc2C1 [Compound 148] | 0.112 µM | 
COCCN1CCn2nc(Nc3cc(-c4ccnc(-n5cnn6c7c(cc6c5=O)CCCC7)c4CO)cn(C)c3=O)cc2C1 [Compound 194] | 0.065 µM | 
COCc1cc(Nc2cc(-c3ccnc(-n4ccn5c6c(cc5c4=O)CCC6)c3CO)cn(C)c2=O)nn1C [Compound 153] | 0.117 µM | 
CCn1cc(Nc2cc(-c3ccnc(-n4ccn5c6c(cc5c4=O)CCC6)c3CO)cn(C)c2=O)nn1 [Compound 138] | 0.218 µM | 
Cn1cc(-c2ccnc(-n3ccn4c5c(cc4c3=O)CCC5)c2CO)cc(Nc2cc3n(n2)CCOC3)c1=O [Compound 155] | 0.122 µM | 
Cn1cc(-c2ccnc(-n3ccn4c5c(cc4c3=O)CC(C)(C)C5)c2CO)cc(NC(=O)c2ccccc2)c1=O [Compound 131] | 2.01 µM | 
Cc1nn(-c2nccc(-c3cc(Nc4ccc(N5CCN(C6COC6)C[C@@H]5C)cn4)c(=O)n(C)c3)c2CO)c(=O)c2cc3c(n12)CCCC3 [Compound 158] | 0.194 µM | 
C[C@H]1CN(C2COC2)CCN1c1cnc(Nc2cc(-c3ccnc(-n4ncn5c6c(cc5c4=O)CC(C)(C)C6)c3CO)cn(C)c2=O)nc1 [Compound 197] | 0.066 µM | 
COCC(C)n1cc(Nc2nc(-c3ccnc(-n4ccn5c6c(cc5c4=O)CC(C)(C)C6)c3CO)cn(C)c2=O)nn1 (stereo not shown) [Compound 42] |  | 0.341 µM
Cc1ccc(Nc2cc(-c3ccnc(-n4ccn5c6c(cc5c4=O)CCC6)c3CO)cn(C)c2=O)nn1 [Compound 147] | 1.56 µM | 
COCc1c(-c2cc(N(C)c3ccc(N4CCN(C5COC5)C[C@@H]4C)cn3)c(=O)n(C)c2)ccnc1-n1ccn2c3c(cc2c1=O)CC(C)(C)C3 [Compound 223, (S)-2-(3′-(methoxymethyl)-1-methyl-5-(methyl(5-(2-methyl-4-(oxetan-3-yl)piperazin-1-yl)pyridin-2-yl)amino)-6-oxo-1,6-dihydro-[3,4′-bispyridin]-2′-yl)-7,7-dimethyl-7,8-dihydro-2H-cyclopenta[4,5]pyrrolo[1,2-a]pyrazin-1(6H)-one] | > 3 µM | 
CCC(=O)Nc1cc(-c2ccnc(-n3ccn4c5c(cc4c3=O)CC(C)(C)C5)c2CO)cn(C)c1=O [Compound 88] | 0.134 µM | 

Now from value to molecule:

IC50 (BTK recombinant protein) | IC50 [1] | SMILES
0.007 µM | 0.005 µM | C[C@H]1CNCCN1c1ccc(Nc2cc(-c3ccnc(-n4ccn5c6c(cc5c4=O)CC(C)(C)C6)c3CO)cn(C)c2=O)nc1 [Compound 96]
0.441 µM | 0.132 µM | Cn1cc(-c2ccnc(-n3ccn4c5c(cc4c3=O)CC(C)(C)C5)c2CO)cc(Nc2ccccc2)c1=O [Compound 77]
> 3 µM |  | CC(O)c1c(-c2cc(Nc3ccc(N4CCN(C5COC5)C[C@@H]4C)cn3)c(=O)n(C)c2)ccnc1-n1ccn2c3c(cc2c1=O)CC(C)(C)C3 (mixture of isomers) [Compound 114]
< 0.001 µM |  | [2H]C(O)c1c(-c2cc(Nc3ccc(N4CCN(C5COC5)C[C@@H]4C)cn3)c(=O)n(C([2H])([2H])[2H])c2)ccnc1-n1ccn2c3c(cc2c1=O)CC(C)(C)C3 (stereo partly shown) [Compound 38]
0.005 µM |  | C[C@@H]1CN(c2ccc(Nc3cc(-c4ccnc(-n5ccn6c7c(cc6c5=O)CC(C)(C)C7)c4CO)nn(C)c3=O)nc2)[C@@H](C)CN1C1COC1 [Compound 201]
0.624 µM |  | COc1ccc(Nc2cc(-c3ccnc(-n4ccn5c6c(cc5c4=O)CCC6)c3CO)cn(C)c2=O)nc1 [Compound 146]
0.316 µM |  | Cn1cc(-c2ccnc(-n3ccn4c5c(cc4c3=O)CC(C)(C)C5)c2CO)cc(NC(=O)C2CCC2)c1=O [Compound 130]
 | 0.002 µM | CN1CCn2nc(Nc3cc(-c4ccnc(-n5ccn6c7c(cc6c5=O)CC(C)(C)C7)c4CO)cn(C)c3=O)cc2C1 [Compound 69, 2-(3′-(hydroxymethyl)-1-methyl-5-((5-methyl-4,5,6,7-tetrahydropyrazolo[1,5-a]pyrazin-2-yl)amino)-6-oxo-1,6-dihydro-[3,4′-bispyridin]-2′-yl)-7,7-dimethyl-7,8-dihydro-2H-cyclopenta[4,5]pyrrolo[1,2-a]pyrazin-1(6H)-one]
0.353 µM |  | COC1CN(c2ccc(Nc3cc(-c4ccnc(-n5ccn6c7c(cc6c5=O)CCC7)c4CO)cn(C)c3=O)nc2)C1 [Compound 152]
1.27 µM |  | Cn1cc(-c2ccnc(-n3ccn4c5c(cc4c3=O)CC(C)(C)C5)c2CO)cc(N)c1=O [Compound 98, 2-(5-amino-3′-(hydroxymethyl)-1-methyl-6-oxo-1,6-dihydro-[3,4′-bispyridin]-2′-yl)-7,7-dimethyl-7,8-dihydro-2H-cyclopenta[4,5]pyrrolo[1,2-a]pyrazin-1(6H)-one]
0.038 µM |  | C[C@H]1COCCN1c1cnc(Nc2cc(-c3ccnc(-n4ncn5c6c(cc5c4=O)CC(C)(C)C6)c3CO)cn(C)c2=O)nc1 [Compound 195]
> 3 µM |  | C[C@H]1CN(C2COC2)CCN1c1ccc(Nc2cc(-c3ccnc(-n4ccn5c6c(cc5c4=O)CC(C)(C)C6)c3CO)cn(C)c2=O)c(F)c1 [Compound 103]
